# According to PMC8401257, “Serjanic Acid Glycosides from Chenopodium hybridum L. with Good Cytotoxicity and Selectivity Profile against Several Panels of Human Cancer Cell Lines” (Molecules, 2021):
# Legend:
# [1] = tested on: 8505C; assay: LDH cytotoxicity assay, undifferentiated thyroid carcinoma 8505C; format: cell-based; conditions: Homo sapiens
# Source text: (§1) Human cancer and the corresponding normal cell lines, used in the study, were grouped as follows: skin panel (melanoma HTB140, derived from metastatic site: lymph node, ATCC Hs 294T; malignant melanoma A375, ATCC CRL-1619; stage I primary melanoma WM793, RRID:CVCL 8787; skin keratinocytes HaCaT), prostate panel (prostate carcinoma Du145, derived from metastatic site: brain, ATCC HTB-81; grade IV prostate carcinoma, PC3, derived from metastatic site: bone, ATCC CRL-1435; prostate epithelial cells PNT2, ECACC 95012613), gastrointestinal panel (colorectal adenocarcinomas Caco2, ATCC HTB-37, and HT29, ATCC HTB-38; hepatocellular carcinoma HepG2, ATCC HB-8065), thyroid panel (follicular thyroid carcinoma FTC133, ECACC 94060901; undifferentiated thyroid carcinoma 8505C, ECACC 94090184; Nthy-ori 3–1, human thyroid follicular epithelial cells, ECACC 90011609), lung carcinoma A549 cells (ATCC CRM-CCL-185). Cells were grown at standard conditions (37 °C, 5% CO2, relative humidity) and culture media (DMEM/F12 for PNT2, WM 793, HT29, PC3, FTC133, 8505C, A549; DMEM Low Glucose for DU145; DMEM High Glucose for HTB140, A375, HaCaT; MEM with NEAA for Caco2), supplemented with 10% fetal bovine serum (FBS) and 1% antibiotics solution (10 000 U penicillin and 10 mg streptomycin/mL). All culture media and supplements were from Sigma-Aldrich.
# (§2) Cell viability was measured with the lactate dehydrogenase (LDH) assay (Clontech, Mountain View, CA, USA), as described previously. Before the experiment, cells were seeded onto 96-well plates for 24 h (1.5 × 10^4 cells/well). The culture medium was replaced with a fresh medium containing different concentrations of the tested extracts (10–100 μg/mL, in DMSO) and incubated for 24 and 48 h. The absorbance was measured at 490 nm using a Biotek Synergy microplate reader. Cell viability was expressed as percent of the dead cells and IC50 values were also calculated. Each experiment was done in triplicate.
# (§3) Data were analyzed using Statistica v. 13.3 (Stat Soft, TIBCO, Palo Alto, CA, USA). Each variable was expressed as mean (± SD). The statistical significance in cytotoxic assay was determined using Mann–Whitney U test. The value p < 0.05 was considered to indicate significant differences. NMR Spectra were analyzed using ACD/Labs ^1D NMR Processor 12.0 (Academic Edition) and JEOL DELTA v 5.3.1 (Jeol Resonance Inc., JEOL, Tokyo, Japan). In MS analysis MassLynx V 4.1 (Waters, Milford, MA, USA) and Compass DataAnalysis (Bruker, Billerica, MA, USA) software were used. IC50 values in cytotoxic assay were calculated using Origin Pro 2020b (OriginLab Corporation, Northampton, MA, USA).
# [2] = tested on: FTC133; assay: LDH cytotoxicity assay, follicular thyroid carcinoma FTC133; format: cell-based; conditions: Homo sapiens
# Source text: as §1, §2, §3
# [3] = tested on: WM793; assay: LDH cytotoxicity assay, primary melanoma WM793; format: cell-based; conditions: Homo sapiens
# Source text: as §1, §2, §3
# [4] = tested on: HT29; assay: LDH cytotoxicity assay, colorectal adenocarcinoma HT29; format: cell-based; conditions: Homo sapiens
# Source text: as §1, §2, §3
# [5] = tested on: PNT2; assay: LDH cytotoxicity assay, normal prostate epithelial PNT2; format: cell-based; conditions: Homo sapiens
# Source text: as §1, §2, §3
# [6] = tested on: HTB-140; assay: LDH cytotoxicity assay, melanoma HTB-140; format: cell-based; conditions: Homo sapiens
# Source text: as §1, §2, §3
# [7] = tested on: Nthy-ori 3–1; assay: LDH cytotoxicity assay, thyroid follicular epithelial cells Nthy-ori 3–1; format: cell-based; conditions: Homo sapiens
# Source text: as §1, §2, §3
# [8] = tested on: PC3; assay: LDH cytotoxicity assay, prostate carcinoma PC3; format: cell-based; conditions: Homo sapiens
# Source text: as §1, §2, §3
# [9] = tested on: HepG2; assay: LDH cytotoxicity assay, hepatocellular carcinoma HepG2; format: cell-based; conditions: Homo sapiens
# Source text: as §1, §2, §3
# [10] = tested on: A375; assay: LDH cytotoxicity assay, malignant melanoma A375; format: cell-based; conditions: Homo sapiens
# Source text: as §1, §2, §3
# [11] = tested on: DU-145; assay: LDH cytotoxicity assay, prostate carcinoma DU-145; format: cell-based; conditions: Homo sapiens
# Source text: as §1, §2, §3
# [12] = tested on: HaCaT; assay: LDH cytotoxicity assay, skin keratinocytes HaCaT; format: cell-based; conditions: Homo sapiens
# Source text: as §1, §2, §3
# [13] = tested on: Caco-2; assay: LDH cytotoxicity assay, colorectal adenocarcinoma Caco-2; format: cell-based; conditions: Homo sapiens
# Source text: as §1, §2, §3
# [14] = tested on: A549; assay: LDH cytotoxicity assay, lung carcinoma A549; format: cell-based; conditions: Homo sapiens
# Source text: as §1, §2, §3
# [15] = tested on: HeLa cells; set-up: method as in doi:10.1007/s11101-009-9121-0; conditions: cited from earlier work
Compound,IC50 ([1]; 24 h) [µg/mL],IC50 ([1]; 48 h) [µg/mL],"IC50 ([2]; FTC-133, FTC133, 24 h) [µg/mL]","IC50 ([2]; FTC-133, FTC133, 48 h) [µg/mL]","IC50 ([3]; WM793, 24 h) [µg/mL]","IC50 ([3]; WM793, 48 h) [µg/mL]","IC50 ([4]; HT-29, HT29, 24 h) [µg/mL]","IC50 ([4]; HT-29, HT29, 48 h) [µg/mL]","IC50 ([5]; PNT2, 24 h) [µg/mL]","IC50 ([5]; PNT2, 48 h) [µg/mL]","IC50 ([6]; HTB-140, 24 h) [µg/mL]","IC50 ([6]; HTB-140, 48 h) [µg/mL]","IC50 ([7]; Nthy-ori 3–1, 24 h) [µg/mL]","IC50 ([8]; PC-3, PC3, 24 h) [µg/mL]","IC50 ([9]; HepG2, 24 h) [µg/mL]","IC50 ([10]; A-375, A375, 24 h) [µg/mL]","IC50 ([11]; DU-145, 24 h) [µg/mL]",IC50 ([12]; 24 h) [µg/mL],"IC50 ([13]; Caco-2, 24 h) [µg/mL]","IC50 ([14]; A549, 24 h) [µg/mL]",also measured
"COC(=O)[C@@]1(C)CC[C@]2(C(=O)O[C@@H]3O[C@H](CO)[C@@H](O)[C@H](O)[C@H]3O)CC[C@]3(C)C(=CC[C@@H]4[C@@]5(C)CC[C@H](O[C@@H]6OC[C@H](O)[C@H](O)[C@H]6O[C@@H]6O[C@@H](C)[C@H](O)[C@@H](O)[C@H]6O)C(C)(C)[C@@H]5CC[C@]43C)[C@@H]2C1 [Compound 1, 3-O-α-L-Rhamnopyranosyl-(1→2)-α-L-Arabinopyranosyl Serjanic Acid 28-O-β-D-Glucopyranosyl Ester]",> 100,> 100,> 100,76.3,17.2,9.92,57.9,22.8,> 100,> 100,11.7,7.95,> 100,34.3,> 100,32.4,16.6,> 100,28.7,61.3,"IC50 ([7]; Nthy-ori 3–1, 48 h): > 100 µg/mL; IC50 ([8]; PC-3, PC3, 48 h): 19.5 µg/mL; IC50 ([9]; HepG2, 48 h): 76.6 µg/mL; IC50 ([10]; A-375, A375, 48 h): 20.3 µg/mL; IC50 ([11]; DU-145, 48 h): 7.25 µg/mL; IC50 ([12]; 48 h): > 100 µg/mL; IC50 ([13]; Caco-2, 48 h): 15.3 µg/mL; IC50 ([14]; A549, 48 h): 34.7 µg/mL"
"COC(=O)[C@@]1(C)CC[C@]2(C(=O)O[C@@H]3O[C@H](CO)[C@@H](O)[C@H](O)[C@H]3O)CC[C@]3(C)C(=CC[C@@H]4[C@@]5(C)CC[C@H](O[C@@H]6OC[C@H](O)[C@H](O)[C@H]6O)C(C)(C)[C@@H]5CC[C@]43C)[C@@H]2C1 [Compound 2, 3-O-α-L-Arabinopyranosyl Serjanic Acid 28-O-β-D-Glucopyranosyl Ester]",> 100,> 100,> 100,> 100,32.2,16.8,10.7,6.48,> 100,> 100,39.2,25.1,> 100,23.8,54.2,39.4,33.1,> 100,20.7,41.7,"IC50 ([7]; Nthy-ori 3–1, 48 h): > 100 µg/mL; IC50 ([8]; PC-3, PC3, 48 h): 18.3 µg/mL; cytotoxicity towards HeLa cells [15]: inactive; IC50 ([9]; HepG2, 48 h): 39 µg/mL; IC50 ([10]; A-375, A375, 48 h): 29.3 µg/mL; IC50 ([11]; DU-145, 48 h): 23.5 µg/mL; IC50 ([12]; 48 h): > 100 µg/mL; IC50 ([13]; Caco-2, 48 h): 12.6 µg/mL; IC50 ([14]; A549, 48 h): 28.3 µg/mL"
"COc1cccc2c1C(=O)c1c(O)c3c(c(O)c1C2=O)C[C@@](O)(C(=O)CO)C[C@@H]3O[C@H]1C[C@H](N)[C@H](O)[C@H](C)O1 [Doxorubicin, reference compound]",> 40,–,4.02,–,> 40,–,1.53,–,1.38,–,5.71,–,–,> 50,1.03,0.59,3.18,4.68,3.44,1.73,–
